Laboratory results as given in publication PMC10333392 (Molecular Imaging and Biology, 2023).
“Also recorded” adds a separate entry of the source.

Columns and labels:
[1] = target: T1, Dopaminergic receptor (D2) (Rattus norvegicus, UniProt P61169); assay: [^3H]raclopride competition binding, rat striatum membranes; conditions: radioligand [^3H]-raclopride
T1 construct: from tissue; host or cells: Wistar rat brain synaptic membranes (striatum according to the earlier reading)

Kaïnate receptor = format: binding, rat
NMDA PCP site = target: T2, NMDA PCP site (Rattus norvegicus, UniProt P35439); assay: [^3H]TCP radioligand competition binding on rat brain membranes; conditions: for IC50: inhibition of [^3H]TCP binding
T2 construct: from tissue; host or cells: Wistar rat hippocampus, frontal cortex or forebrain synaptic membranes

[2] = target: T3, Dopaminergic receptor (D1) (Rattus norvegicus, UniProt P18901); assay: [^3H]SCH23390 competition binding, rat striatum membranes; conditions: radioligand [^3H]-SCH23390
T3 construct: from tissue; host or cells: Wistar rat brain synaptic membranes (striatum according to the earlier reading)
T3 sequence (P18901 whole entry): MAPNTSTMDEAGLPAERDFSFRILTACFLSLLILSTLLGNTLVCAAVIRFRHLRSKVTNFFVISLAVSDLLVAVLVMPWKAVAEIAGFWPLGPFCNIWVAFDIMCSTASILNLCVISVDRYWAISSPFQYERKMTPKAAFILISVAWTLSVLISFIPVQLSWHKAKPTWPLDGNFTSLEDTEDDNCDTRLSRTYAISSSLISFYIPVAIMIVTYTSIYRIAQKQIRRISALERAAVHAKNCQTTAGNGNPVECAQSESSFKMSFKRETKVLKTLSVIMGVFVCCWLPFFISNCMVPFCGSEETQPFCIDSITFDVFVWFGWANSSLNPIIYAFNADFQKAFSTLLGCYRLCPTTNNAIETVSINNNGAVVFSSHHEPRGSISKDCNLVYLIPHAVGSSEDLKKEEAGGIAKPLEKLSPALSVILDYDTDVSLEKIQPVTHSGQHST

[3] = target: T4, NMDA receptor glycine site (Rattus norvegicus, UniProt P35439); assay: [^3H]glycine competition binding, rat forebrain membranes; conditions: radioligand [^3H]-glycine
T4 construct: from tissue; host or cells: Wistar rat forebrain synaptic membranes

AMPA receptor = assay: [^3H]AMPA competition binding, rat forebrain membranes; conditions: radioligand [^3H]-AMPA
[4] = read-out: IC50 ± SEM ([^19F]FNM inhibition)

T1 sequence (P61169 whole entry): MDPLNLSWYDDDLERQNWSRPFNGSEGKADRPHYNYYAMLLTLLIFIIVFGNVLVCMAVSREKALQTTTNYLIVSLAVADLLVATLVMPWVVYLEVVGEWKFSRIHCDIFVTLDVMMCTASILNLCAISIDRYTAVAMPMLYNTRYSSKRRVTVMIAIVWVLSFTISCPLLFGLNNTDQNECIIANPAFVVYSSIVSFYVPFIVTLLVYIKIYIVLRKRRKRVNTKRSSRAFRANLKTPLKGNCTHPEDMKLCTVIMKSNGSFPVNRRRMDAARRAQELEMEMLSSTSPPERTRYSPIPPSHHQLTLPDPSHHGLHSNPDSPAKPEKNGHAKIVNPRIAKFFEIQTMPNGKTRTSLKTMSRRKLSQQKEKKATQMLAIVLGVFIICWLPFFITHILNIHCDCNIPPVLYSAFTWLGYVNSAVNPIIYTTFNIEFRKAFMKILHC

With Fluoroethylnormemantine [[^19F]FNM] the “IC50 ± SEM ([^19F]FNM inhibition)” value [1] was “did not displace”, the IC50 [1, 4] was greater than 1 mM and the “IC50 ± SEM ([^19F]FNM inhibition)” value (Kaïnate receptor) was “did not displace; also recorded: No inhibition”. For the same substance, the “selectivity for the NMDA receptor ion-channel compared to the other targets examined” value (NMDA PCP site; in the forebrain) was “at least sevenfold”, the IC50 (NMDA PCP site; rat forebrain) was 13 ± 8.9 µM and the IC50 (NMDA PCP site; rat frontal cortex) was 80.8 ± 15.1 µM. The IC50 (NMDA PCP site; rat hippocampus) was 52.9 ± 9.7 µM, the “IC50 ± SEM ([^19F]FNM inhibition)” value [2] was “did not displace” and the IC50 [2, 4] was greater than 1 mM. For the same substance, the “IC50 ± SEM ([^19F]FNM inhibition)” value [3] was “did not displace; also recorded: No inhibition” and the “IC50 ± SEM ([^19F]FNM inhibition)” value (AMPA receptor) was “did not displace; also recorded: No inhibition”.
